Assay results: patent US20230414771A1, “PREPARATION AND USE OF IMMUNOSTIMULATORY CONJUGATED COMPLEXES FOR TARGETED DELIVERY AND ACTIVATION” (YAFEI SHANGHAI BIOLOGY MEDICINE SCIENCE & TECHNOLOGY CO., …, priority 2020, published 2023)
Where a SMILES comes first, the peptide text is derived from it. [ ]: non-standard residue; d: D form. The star is where a group is joined. Doxorubicin(3'-N) = COc1cccc2c1C(=O)c1c(O)c3c(c(O)c1C2=O)C[C@@](O)(C(=O)CO)C[C@@H]3O[C@H]1C[C@H](N*)[C@H](O)[C@H](C)O1; Thyronine(3,5,3'-I3) = N[C@@H](Cc1cc(I)c(Oc2ccc(O)c(I)c2)c(I)c1)C(=O)O; Mal(CH2CH2O)6CH2CH2CO = O=C1C=CC(=O)N1CCOCCOCCOCCOCCOCCOCCC(=O)*; MaleimidoPEG4propanoyl = O=C1C=CC(=O)N1CCOCCOCCOCCOCCC(=O)*; Propanoyl(3-maleimido) = O=C1C=CC(=O)N1CCC(=O)*; PEG6 = NCCOCCOCCOCCOCCOCCOCCC(=O)O; X3 = O=C1C=CC(=O)N1CCOCCOCCC(=O)*; PEG4 = NCCOCCOCCOCCOCCC(=O)O

Tested on: not listed separately
Test: Water solubility test (observation and HPLC)
Assay type: physicochemical
Conditions: thermodynamic from solid
Experimental: The compounds prepared in accordance with the examples of the disclosure and the reference compounds C1, C2, C3 and C4 were lyophilized (−70° C.).

Question: Which solubility does the source give for `C[C@@H](NC(=O)CCOCCOCCNC(=O)CCN1C(=O)C=CC1=O)C(=O)N[C@H](C)C(=O)N[C@H](CC(N)=O)C(=O)Nc1ccc(COC(=O)Nc2nccc(-c3sc(C(C)(C)C)nc3-c3cccc(NS(=O)(=O)c4c(F)cccc4F)c3F)n2)cc1` [QHL-086-dabrafenib] here?
Answer: The solubility was > 20000 µg/mL.

Question: For `CCOCc1nc2c(NC(=O)OCc3ccc(NC(=O)[C@H](CC(N)=O)NC(=O)[C@H](C)NC(=O)[C@H](C)NC(=O)CCOCCOCCOCCOCCOCCOCCOCCOCCOCCOCCOCCOCCN4C(=O)C=CC4=O)cc3)nc3ccccc3c2n1CC(C)(C)O` [QHL-147-Resiquimod], which solubility is on record?
Answer: Its solubility is > 10000 µg/mL.

Question: Which solubility does the source give for `C[C@H](NC(=O)CCOCCOCCOCCOCCOCCOCCN1C(=O)C=CC1=O)C(=O)N[C@@H](C)C(=O)N[C@H](CC(N)=O)C(=O)N[C@@H](Cc1cc(I)c(Oc2ccc(O)c(I)c2)c(I)c1)C(=O)O` [QHL-155-T3] ({Mal(CH2CH2O)6CH2CH2CO}-AA[dN][Thyronine(3,5,3'-I3)]-OH) here?
Answer: The solubility was > 10000 µg/mL.

Question: With `CCOCc1nc2c(NC(=O)OCc3ccc(NC(=O)[C@@H](CC(N)=O)NC(=O)[C@H](C)NC(=O)[C@H](C)NC(=O)CCOCCOCCN4C(=O)C=CC4=O)cc3)nc3ccccc3c2n1CC(C)(C)O` [QHL-005-Resiquimod] as the compound, how does the solubility read?
Answer: Its solubility is > 10000 µg/mL.

Question: Which solubility does the source give for `C[C@H](NC(=O)CCOCCOCCN1C(=O)C=CC1=O)C(=O)N[C@@H](C)C(=O)N[C@H](CC(N)=O)C(=O)N[C@@H](Cc1cc(I)c(Oc2ccc(O)c(I)c2)c(I)c1)C(=O)O` [QHL-153-T3] (X3-AA[dN][Thyronine(3,5,3'-I3)]-OH) here?
Answer: The solubility was > 10000 µg/mL.

Question: With `CCOCc1nc2c(NC(=O)OCc3ccc(NC(=O)[C@@H](CC(N)=O)NC(=O)[C@H](C)NC(=O)[C@H](C)NC(=O)CCOCCOCCOCCN4C(=O)C=CC4=O)cc3)nc3ccccc3c2n1CC(C)(C)O` [QHL-006-Resiquimod] as the compound, how does the solubility read?
Answer: Its solubility is > 10000 µg/mL.

Question: Which solubility does the source give for `CCOCc1nc2c(NC(=O)OCc3ccc(NC(=O)[C@H](CC(N)=O)NC(=O)[C@H](C)NC(=O)[C@H](C)NC(=O)CCCCCN4C(=O)C=CC4=O)cc3)nc3ccccc3c2n1CC(C)(C)O` [QHL-140-Resiquimod] here?
Answer: The solubility was > 10000 µg/mL.

Question: For `C[C@@H](NC(=O)CCOCCOCCOCCNC(=O)CCN1C(=O)C=CC1=O)C(=O)N[C@H](C)C(=O)N[C@H](CC(N)=O)C(=O)Nc1ccc(COC(=O)Nc2nccc(-c3sc(C(C)(C)C)nc3-c3cccc(CS(=O)(=O)c4c(F)cccc4F)c3F)n2)cc1` [QHL-089-dabrafenib], which solubility is on record?
Answer: Its solubility is > 20000 µg/mL.

Tested on: Human hepatoma HepG2 cells
Test: Human liver cancer HepG2 tumors in nude mice
Assay type: in vivo
Conditions: 54 umol/kg IV once a week for 4 weeks
Experimental: • 1. Animals: nude mice aged 6-8 weeks, all female. • 2. Preparation of tumor models
Human hepatoma HepG2 cells were purchased from ATCC and identified according to the instructions provided. […] Randomization was performed when the tumor size reached 100 mm^3.
Treatment was then initiated, and the day of initiation of treatment was counted as Day 1. • 3) Treatment process
According to the clinical application of the corresponding compound, the drug was administered intravenously (IV). The compound and the control drug were administered at a dose of 54 umol/kg, and DOX could only be administered at a dose of 18 umol/kg due to toxicity limitations.

Question: With `COc1cccc2c1C(=O)c1c(O)c3c(c(O)c1C2=O)C[C@@](O)(C(=O)CO)C[C@@H]3O[C@H]1C[C@H](NC(=O)[C@H](CC(C)C)NC(=O)[C@H](CC(N)=O)NC(=O)[C@H](C)NC(=O)[C@H](C)NC(=O)CCOCCOCCOCCOCCN2C(=O)C=CC2=O)[C@H](O)[C@H](C)O1` [QHL-011-DOX] (MaleimidoPEG4propanoyl-AANL-{Doxorubicin(3'-N)}) as the compound, how does the “Tumor volume (mm^3) Day 28” value read?
Answer: The value was 98.1 ± 48.4 mm^3.

Question: For `COc1cccc2c1C(=O)c1c(O)c3c(c(O)c1C2=O)C[C@@](O)(C(=O)CO)C[C@@H]3O[C@H]1C[C@H](NC(=O)[C@H](CC(C)C)NC(=O)[C@H](CC(N)=O)NC(=O)[C@H](C)NC(=O)[C@H](C)NC(=O)CCOCCOCCOCCOCCOCCOCCN2C(=O)C=CC2=O)[C@H](O)[C@H](C)O1` [QHL-012-DOX] ({Mal(CH2CH2O)6CH2CH2CO}-AANL-{Doxorubicin(3'-N)}), which “Tumor volume (mm^3) Day 28” value is on record?
Answer: The value was 197.4 ± 104.5 mm^3.

Question: With `COc1cccc2c1C(=O)c1c(O)c3c(c(O)c1C2=O)C[C@@](O)(C(=O)CO)C[C@@H]3O[C@H]1C[C@H](NC(=O)[C@H](CC(C)C)NC(=O)[C@H](CC(N)=O)NC(=O)[C@H](C)NC(=O)[C@H](C)NC(=O)CCOCCOCCN2C(=O)C=CC2=O)[C@H](O)[C@H](C)O1` [QHL-009-DOX] (X3-AANL-{Doxorubicin(3'-N)}) as the compound, how does the “Tumor volume (mm^3) Day 28” value read?
Answer: Its value is 0 mm^3.

Same assay, conditions: Mus musculus, HepG2, iv, 672 h, read-out: Tumor inhibition rate (%) Day 28

Question: Which inhibition in vivo at 54 µmol/kg does the source give for `COc1cccc2c1C(=O)c1c(O)c3c(c(O)c1C2=O)C[C@@](O)(C(=O)CO)C[C@@H]3O[C@H]1C[C@H](NC(=O)[C@H](CC(C)C)NC(=O)[C@H](CC(N)=O)NC(=O)[C@H](C)NC(=O)[C@H](C)NC(=O)CCOCCOCCOCCOCCN2C(=O)C=CC2=O)[C@H](O)[C@H](C)O1` [QHL-011-DOX] (MaleimidoPEG4propanoyl-AANL-{Doxorubicin(3'-N)}) here?
Answer: The inhibition in vivo at 54 µmol/kg was 96.6%.

Question: With `COc1cccc2c1C(=O)c1c(O)c3c(c(O)c1C2=O)C[C@@](O)(C(=O)CO)C[C@@H]3O[C@H]1C[C@H](NC(=O)[C@H](CC(C)C)NC(=O)[C@H](CC(N)=O)NC(=O)[C@H](C)NC(=O)[C@H](C)NC(=O)CCOCCOCCOCCOCCOCCOCCN2C(=O)C=CC2=O)[C@H](O)[C@H](C)O1` [QHL-012-DOX] ({Mal(CH2CH2O)6CH2CH2CO}-AANL-{Doxorubicin(3'-N)}) as the compound, how does the inhibition in vivo at 54 µmol/kg read?
Answer: The inhibition in vivo at 54 µmol/kg was 93.2%.

Question: Which inhibition in vivo at 54 µmol/kg does the source give for `COc1cccc2c1C(=O)c1c(O)c3c(c(O)c1C2=O)C[C@@](O)(C(=O)CO)C[C@@H]3O[C@H]1C[C@H](NC(=O)[C@H](CC(C)C)NC(=O)[C@H](CC(N)=O)NC(=O)[C@H](C)NC(=O)[C@H](C)NC(=O)CCOCCOCCOCCOCCOCCOCCNC(=O)CCN2C(=O)C=CC2=O)[C@H](O)[C@H](C)O1` [QHL-096-DOX] ({Propanoyl(3-maleimido)-PEG6}-AANL-{Doxorubicin(3'-N)}) here?
Answer: Its inhibition in vivo at 54 µmol/kg is 100%.

Question: With `COc1cccc2c1C(=O)c1c(O)c3c(c(O)c1C2=O)C[C@@](O)(C(=O)CO)C[C@@H]3O[C@H]1C[C@H](NC(=O)[C@H](CC(C)C)NC(=O)[C@H](CC(N)=O)NC(=O)[C@H](C)NC(=O)[C@H](C)NC(=O)CCOCCOCCOCCNC(=O)CCN2C(=O)C=CC2=O)[C@H](O)[C@H](C)O1` [QHL-090-DOX] as the compound, how does the inhibition in vivo at 54 µmol/kg read?
Answer: The inhibition in vivo at 54 µmol/kg was 100%.

Question: With `COc1cccc2c1C(=O)c1c(O)c3c(c(O)c1C2=O)C[C@@](O)(C(=O)CO)C[C@@H]3O[C@H]1C[C@H](NC(=O)[C@H](CC(C)C)NC(=O)[C@H](CC(N)=O)NC(=O)[C@H](C)NC(=O)[C@H](C)NC(=O)CCOCCOCCOCCOCCNC(=O)CCN2C(=O)C=CC2=O)[C@H](O)[C@H](C)O1` [QHL-093-DOX] ({Propanoyl(3-maleimido)-PEG4}-AANL-{Doxorubicin(3'-N)}) as the compound, how does the inhibition in vivo at 54 µmol/kg read?
Answer: Its inhibition in vivo at 54 µmol/kg is 94.2%.

Question: For `COc1cccc2c1C(=O)c1c(O)c3c(c(O)c1C2=O)C[C@@](O)(C(=O)CO)C[C@@H]3O[C@H]1C[C@H](NC(=O)[C@H](CC(C)C)NC(=O)[C@H](CC(N)=O)NC(=O)[C@H](C)NC(=O)[C@H](C)NC(=O)CCOCCOCCN2C(=O)C=CC2=O)[C@H](O)[C@H](C)O1` [QHL-009-DOX] (X3-AANL-{Doxorubicin(3'-N)}), which inhibition in vivo at 54 µmol/kg is on record?
Answer: The inhibition in vivo at 54 µmol/kg was 100%.
